Data published in US20240408050A1, “DIHYDROMYRICETIN SPRAY-DRIED DISPERSION FORMULATIONS AND METHODS FOR FORMING THEM” (The Trustees of Princeton University, priority 2018, published 2024).
≈ marks a conversion by molar mass, not a printed value. Like-named read-outs stand apart in the source and are kept apart here.

Tests used:
[1] = In vitro release in fed state simulated intestinal fluid (FeSSIF), Example 1, FIG. 3; type: physicochemical; conditions: 37° C., loaded at 1400 μg/mL DHM, 360 minute timepoint
Method: (§1) Release Kinetics in Vitro: Simulated gastric fluid (FaSSGF) and intestinal fluids (FaSSIF and FeSSIF) are prepared according to the manufacturer's instructions. Dissolution tests are performed with spray dried DHM-containing powders or tablets with the appropriate controls. Release under Gastric Conditions: DHM-containing spray dried powder samples are suspended in prewarmed FaSSGF (37° C.) to achieve a drug (DHM) concentration of roughly 10-100× the previously determined equilibrium solubility in the FaSSGF fluid (e.g., 75 μg/mL) by pipetting up and down vigorously multiple times. The samples are incubated for the duration of the study (e.g., 30 min) at 37° C. […] The samples are then diluted as appropriate to fall within the detection range and analyzed by high-performance liquid chromatography (HPLC), with the mobile phase as 80:20 H2O: acetonitrile (each with 0.05% trifluoroacetic acid), and with detection with UV-Vis at 290 nm. The concentration of DHM is then calculated based on a calibration curve. […] The samples are then diluted as appropriate to fall within the detection range and analyzed by HPLC, with the mobile phase as 80:20 H2O: acetonitrile (each with 0.05% trifluoroacetic acid), and with detection with UV-Vis at 290 nm. The concentration of DHM is then calculated based on a calibration curve. […]

[2] = In vitro release in FeSSIF with 1% v/v Tween 20 (Polysorbate 20), Example 2, FIG. 4; type: physicochemical; conditions: FeSSIF + 1% v/v Tween 20, 37° C.
Method: as §1

[3] = low solubility and permeability; cited from earlier work
[4] = reference [17]; cited from earlier work
[5] = Equilibrium solubility of crystalline DHM in simulated intestinal fluids (FeSSIF, FaSSIF); type: physicochemical; conditions: thermodynamic from solid

effect of Tween 20 (Polysorbate 20) surfactant on solubility of DHM [2]: increased | solubility thermodynamic ([5]; Fasted State Simulated Intestinal Fluid (FaSSIF), pH 6.5, fassif, fasted state simulated intestinal fluid, pH 6.5, read-out: equilibrium solubility in FaSSIF): ~0.05 mg/mL (≈ 156 µM) | solubility thermodynamic ([5]; Fed State Simulated Intestinal Fluid (FeSSIF), pH 5, fessif, fed state simulated intestinal fluid, pH 5.0, read-out: equilibrium solubility in FeSSIF): ~0.14 mg/mL (≈ 437 µM)
Structure (SMILES): O=C1c2c(O)cc(O)cc2O[C@H](c2cc(O)c(O)c(O)c2)[C@H]1O [DHM, dihydromyricetin]
dissolved DHM concentration at completion of the release study [1]: approximately reached its previously determined equilibrium concentration | BCS class [3]: BCS class IV | oral bioavailability [4]: less than 5%
